By IC50 is commonly meant the concentration that gives 50% inhibition. A lower IC50 goes with higher potency.

The target in the experiment is T1, Human MTHFD2 (Homo sapiens, UniProt P13995).
T1 construct: residues 36-350 in Uniport ID P13995; His6 (N); made in house; host or cells: E. coli
T1 sequence (P13995 36-350): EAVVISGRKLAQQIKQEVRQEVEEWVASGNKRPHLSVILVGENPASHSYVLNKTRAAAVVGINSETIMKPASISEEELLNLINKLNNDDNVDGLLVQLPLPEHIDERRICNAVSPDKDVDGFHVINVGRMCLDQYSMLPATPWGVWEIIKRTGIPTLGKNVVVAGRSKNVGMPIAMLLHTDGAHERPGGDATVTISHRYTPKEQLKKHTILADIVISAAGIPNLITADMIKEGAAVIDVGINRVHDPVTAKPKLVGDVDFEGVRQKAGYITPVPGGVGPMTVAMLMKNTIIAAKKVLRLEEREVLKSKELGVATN
Nature of the experiment: MTHFD2 Activity Assay (dehydrogenase activity, diaphorase/resazurin coupled fluorescence). The format is biochemical. The following applies: inhibitory activity (IC50 and/or binding constant); 0.2 nM MTHFD2, 11 concentrations. An outline of the steps: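 His6-tagged MTHFD2 (res. 36-350), E. coli-expressed, at 0.2 nM preincubated with compound 15 min in Hepes pH 8.0/MgCl2/KH2PO4 buffer; 70 μM CH2-THF, 1 mM NAD+ added with resazurin/diaphorase, 30 min, EDTA stop. Resorufin fluorescence (ex 525/em 598); IC50 from 11-point 4-parameter fit.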
On the technique in general: Resazurin is reduced to fluorescent resorufin, in cell work by metabolically active cells.
`Cn1c(N[C@H]2CC[C@H](N)CC2)nc2c1c(=O)n(Cc1ccc(Cl)c(Cl)c1)c(=O)n2C` [Example 38, (±)-1-[(3,4-dichlorophenyl)methyl]-3,7-dimethyl-8-{[(trans)-4-aminocyclohexyl]amino}-2,3,6,7-tetrahydro-1H-purine-2,6-dione] gave a 50% inhibitory concentration (IC50) of 1 to 5 µM.

As to `Cn1c(N[C@H]2CC[C@@H](N)CC2)nc2c1c(=O)n(Cc1ccc(Cl)c(Cl)c1)c(=O)n2C` [Example 39, (±)-1-[(3,4-dichlorophenyl)methyl]-3,7-dimethyl-8-{[(cis)-4-aminocyclohexyl]amino}-2,3,6,7-tetrahydro-1H-purine-2,6-dione], the IC50 was in the range of 1 to 5 µM.

Molecule `CN(C)CCNc1nc2c(c(=O)n(Cc3ccc(Cl)c(Cl)c3)c(=O)n2C)n1C` [Example 40, 1-[(3,4-dichlorophenyl)methyl]-8-{[2-(dimethylamino)ethyl]amino}-3,7-dimethyl-2,3,6,7-tetrahydro-1H-purine-2,6-dione] gave an IC50 of 1 to 5 µM.

`Cn1c(NCc2cn[nH]c2)nc2c1c(=O)n(Cc1ccc(Cl)c(Cl)c1)c(=O)n2C` [Example 42, 1-[(3,4-dichlorophenyl)methyl]-3,7-dimethyl-8-[(1H-pyrazol-4-ylmethyl)amino]-2,3,6,7-tetrahydro-1H-purine-2,6-dione] yielded an IC50 of 1 to 5 µM.

On to `Cn1c(NCCC(C)(C)O)nc2c1c(=O)n(Cc1ccc(Cl)c(Cl)c1)c(=O)n2C` [Example 45, 1-[(3,4-dichlorophenyl)methyl]-8-[(3-hydroxy-3-methylbutyl)amino]-3,7-dimethyl-2,3,6,7-tetrahydro-1H-purine-2,6-dione], for which the IC50 lay in the range of 0.01 to 1 µM.

Molecule `Cn1c(N[C@H]2CCCOC2)nc2c1c(=O)n(Cc1ccc(Cl)c(Cl)c1)c(=O)n2C` [Example 46, 1-[(3,4-dichlorophenyl)methyl]-3,7-dimethyl-8-{[(3S)-oxan-3-yl]amino}-2,3,6,7-tetrahydro-1H-purine-2,6-dione] displayed a half-maximal inhibitory concentration (IC50) of 0.01 to 1 µM.

`Cn1c(N[C@@H]2CCCOC2)nc2c1c(=O)n(Cc1ccc(Cl)c(Cl)c1)c(=O)n2C` [Example 47, 1-[(3,4-dichlorophenyl)methyl]-3,7-dimethyl-8-{[(3R)-oxan-3-yl]amino}-2,3,6,7-tetrahydro-1H-purine-2,6-dione]: the IC50 lay in the range of 0.01 to 1 µM.

Molecule `Cn1c(NC2CCOCC2)nc2c1c(=O)n(Cc1ccc(Cl)c(Cl)c1)c(=O)n2C` [Example 48, 1-[(3,4-dichlorophenyl)methyl]-3,7-dimethyl-8-[(oxan-4-yl)amino]-2,3,6,7-tetrahydro-1H-purine-2,6-dione] returned an IC50 of 0.01 to 1 µM.

`Cn1c(N[C@H]2CCOC2)nc2c1c(=O)n(Cc1ccc(Cl)c(Cl)c1)c(=O)n2C` [Example 49, 1-[(3,4-dichlorophenyl)methyl]-3,7-dimethyl-8-{[(3S)-oxolan-3-yl]amino}-2,3,6,7-tetrahydro-1H-purine-2,6-dione] showed an IC50 of 0.01 to 1 µM.

The molecule `Cn1c(N[C@@H]2CC[C@H](C(=O)O)C2)nc2c1c(=O)n(Cc1ccc(Cl)c(Cl)c1)c(=O)n2C` [Example 50, (1S,3R)-3-({1-[(3,4-dichlorophenyl)methyl]-3,7-dimethyl-2,6-dioxo-2,3,6,7-tetrahydro-1H-purin-8-yl}amino)cyclopentane-1-carboxylic acid] yielded an IC50 of 0.01 to 1 µM.

On to `C[C@@H](CCO)Nc1nc2c(c(=O)n(Cc3ccc4sccc4c3)c(=O)n2C)n1C` [Example 51, 1-(1-benzothiophen-5-ylmethyl)-8-{[(2S)-4-hydroxybutan-2-yl]amino}-3,7-dimethyl-2,3,6,7-tetrahydro-1H-purine-2,6-dione], for which the IC50 was in the range of 0.01 to 1 µM.

The molecule `Cn1c(NCCCO)nc2c1c(=O)n(Cc1ccc3sccc3c1)c(=O)n2C` [Example 52, 1-(1-benzothiophen-5-ylmethyl)-8-[(3-hydroxypropyl)amino]-3,7-dimethyl-2,3,6,7-tetrahydro-1H-purine-2,6-dione] registered an IC50 of 0.01 to 1 µM.

The molecule `Cn1c(NC(CO)CO)nc2c1c(=O)n(Cc1ccc(Cl)c(Cl)c1)c(=O)n2C` [Example 53, 1-[(3,4-dichlorophenyl)methyl]-8-[(1,3-dihydroxypropan-2-yl)amino]-3,7-dimethyl-2,3,6,7-tetrahydro-1H-purine-2,6-dione] yielded an IC50 of 0.01 to 1 µM.

In the case of `Cn1c(NCCOCCO)nc2c1c(=O)n(Cc1ccc(Cl)c(Cl)c1)c(=O)n2C` [Example 54, 1-[(3,4-dichlorophenyl)methyl]-8-{[2-(2-hydroxyethoxy)ethyl]amino}-3,7-dimethyl-2,3,6,7-tetrahydro-1H-purine-2,6-dione], the IC50 lay in the range of 0.01 to 1 µM.

For the molecule `Cn1c(NCCCO)nc2c1c(=O)n(Cc1ccc(C(F)(F)F)cc1)c(=O)n2C` [Example 56, 8-[(3-hydroxypropyl)amino]-3,7-dimethyl-1-{[4-(trifluoromethyl)phenyl]methyl}-2,3,6,7-tetrahydro-1H-purine-2,6-dione], the IC50 was 5 to 10 µM.

In the case of `C[C@@H](O)CNc1nc2c(c(=O)n(Cc3ccc(C(F)(F)F)cc3)c(=O)n2C)n1C` [Example 57, 8-{[(2R)-2-hydroxypropyl]amino}-3,7-dimethyl-1-{[4-(trifluoromethyl)phenyl]methyl}-2,3,6,7-tetrahydro-1H-purine-2,6-dione], the IC50 fell in the range of 5 to 10 µM.

`Cn1c(NC2CCCCC2)nc2c1c(=O)n(Cc1ccc(Cl)c(Cl)c1)c(=O)n2C` [Example 59, 8-(cyclohexylamino)-1-[(3,4-dichlorophenyl)methyl]-3,7-dimethyl-2,3,6,7-tetrahydro-1H-purine-2,6-dione] showed an IC50 of 1 to 5 µM.

In turn, `Cn1c(N[C@@H]2CCNC2)nc2c1c(=O)n(Cc1ccc(Cl)c(Cl)c1)c(=O)n2C` [Example 60, 1-[(3,4-dichlorophenyl)methyl]-3,7-dimethyl-8-{[(3R)-pyrrolidin-3-yl]amino}-2,3,6,7-tetrahydro-1H-purine-2,6-dione] yielded an IC50 of 1 to 5 µM.

For `Cn1c(N[C@H]2CCNC2)nc2c1c(=O)n(Cc1ccc(Cl)c(Cl)c1)c(=O)n2C` [Example 61, 1-[(3,4-dichlorophenyl)methyl]-3,7-dimethyl-8-{[(3S)-pyrrolidin-3-yl]amino}-2,3,6,7-tetrahydro-1H-purine-2,6-dione], the IC50 was in the range of 1 to 5 µM.

In turn, `Cn1c(NCCCO)nc2c1c(=O)n(-c1ccc(Cl)c(Cl)c1)c(=O)n2C` [Example 62, 1-(3,4-dichlorophenyl)-8-[(3-hydroxypropyl)amino]-3,7-dimethyl-2,3,6,7-tetrahydro-1H-purine-2,6-dione] registered an IC50 of over 10 µM.

Take `Cn1c(N[C@@H]2CCOC2)nc2c1c(=O)n(Cc1ccc(Cl)c(Cl)c1)c(=O)n2C` [Example 63, 1-[(3,4-dichlorophenyl)methyl]-3,7-dimethyl-8-{[(3R)-oxolan-3-yl]amino}-2,3,6,7-tetrahydro-1H-purine-2,6-dione]: the IC50 lay in the range of 0.01 to 1 µM.

The molecule `Cn1c(N[C@H]2CC[C@@H](C(=O)O)C2)nc2c1c(=O)n(Cc1ccc(Cl)c(Cl)c1)c(=O)n2C` [Example 64, (1R,3S)-3-(1-(3,4-dichlorobenzyl)-3,7-dimethyl-2,6-dioxo-2,3,6,7-tetrahydro-1H-purin-8-ylamino)cyclopentanecarboxylic acid] gave a concentration for half-maximal inhibition (IC50) of 0.01 to 1 µM.

`Cn1c(NC2CNC2)nc2c1c(=O)n(Cc1ccc(Cl)c(Cl)c1)c(=O)n2C` [Example 65, 8-[(azetidin-3-yl)amino]-1-[(3,4-dichlorophenyl)methyl]-3,7-dimethyl-2,3,6,7-tetrahydro-1H-purine-2,6-dione] had an IC50 of 1 to 5 µM.

`Cn1c(N[C@H]2C[C@@H](O)C2)nc2c1c(=O)n(Cc1ccc(Cl)c(Cl)c1)c(=O)n2C` [Example 66, 1-[(3,4-dichlorophenyl)methyl]-3,7-dimethyl-8-{[(cis)-3-hydroxycyclobutyl]amino}-2,3,6,7-tetrahydro-1H-purine-2,6-dione] displayed an IC50 of 0.01 to 1 µM.

In turn, `Cn1c(NCCCO)nc2c1c(=O)n(Cc1ccc(Cl)c(C(F)(F)F)c1)c(=O)n2C` [Example 67, 1-{[4-chloro-3-(trifluoromethyl)phenyl]methyl}-8-[(3-hydroxypropyl)amino]-3,7-dimethyl-2,3,6,7-tetrahydro-1H-purine-2,6-dione] displayed an IC50 of 0.01 to 1 µM.

Turning to `Cn1c(N[C@H]2CCCNC2)nc2c1c(=O)n(Cc1ccc(Cl)c(Cl)c1)c(=O)n2C` [Example 68, 1-[(3,4-dichlorophenyl)methyl]-3,7-dimethyl-8-{[(3S)-piperidin-3-yl]amino}-2,3,6,7-tetrahydro-1H-purine-2,6-dione], the IC50 fell in the range of 1 to 5 µM.

Turning to `Cn1c(N[C@@H]2CCCNC2)nc2c1c(=O)n(Cc1ccc(Cl)c(Cl)c1)c(=O)n2C` [Example 69, 1-[(3,4-dichlorophenyl)methyl]-3,7-dimethyl-8-{[(3R)-piperidin-3-yl]amino}-2,3,6,7-tetrahydro-1H-purine-2,6-dione], the IC50 was 0.01 to 1 µM.

In turn, `CC(c1ccc(Cl)c(Cl)c1)n1c(=O)c2c(nc(NCCCO)n2C)n(C)c1=O` (centres unmarked) [Example 72, 1-[1-(3,4-dichlorophenyl)ethyl]-8-[(3-hydroxypropyl)amino]-3,7-dimethyl-2,3,6,7-tetrahydro-1H-purine-2,6-dione] came in with an IC50 of over 10 µM.

In the case of `Cn1c(NCCCO)nc2c1c(=O)n(Cc1ccc(C(F)(F)F)c(Cl)c1)c(=O)n2C` [Example 73, 1-{[3-chloro-4-(trifluoromethyl)phenyl]methyl}-8-[(3-hydroxypropyl)amino]-3,7-dimethyl-2,3,6,7-tetrahydro-1H-purine-2,6-dione], the IC50 lay in the range of 1 to 5 µM.
